Laboratory results: patent US11192932B2, “Heparin-binding domain of IGFBP-2 in the treatment of metabolic disorders” (Amolyt Pharma, priority 2018, dated 2021)
Entries after “also recorded” stand apart in the source; their conditions may differ. No end group written: not given here. *: point of attachment. Stearoyl = CCCCCCCCCCCCCCCCCC(=O)*

What was measured:
[1] = test system: ob/ob mice; test: Glucose telemetry and IPGTT in glucose-telemetered ob/ob mice, 28 days of treatment; type: in vivo, mouse; details: for glucose intolerance (3-hour IPGTT profile): glucose telemetered ob/ob mice, 1 and 3 mg/kg s.c. twice daily, 28 days, glucose 1 g/kg i.p., vs vehicle; for 16-hour mean blood glucose levels: day 27, normal fed conditions, vs baseline (Day -1) and vehicle
Protocol: FIG. 2A: 3-hour intraperitoneal glucose tolerance test profiles after 28 days of acylated HBD1 (3-11) fragment treatment. (n=5-8 in each group; p value <0.0001 at both doses vs VHL), Two-way ANOVA with multiple comparison, ****p<0.0001; FIG. 2B: fasting blood glucose levels (average value within 10 min prior to IPGTT) after 28 days of acylated HBD1 (3-11) fragment treatment. (n=5-8 in each group; p value <0.005 at the 3 mg/kg dose vs VHL), Unpaired two-tailed t-test vs VHL, ***p<0.005; FIG. 2C: Areas under the curve of the 3-hour intraperitoneal glucose tolerance test profiles after 28 days of acylated HBD1 (3-11) fragment treatment. (n=5-8 in each group), Unpaired two-tailed t-test vs VHL,*p<0.05, ****p<0.0001.
FIG. 3A: 16-hour mean blood glucose levels before (Day −1) and after 27 days of acylated HBD1 (3-11) fragment treatment. (n=5-8 in each group; **p value <0.001 at the 3 mg/kg dose vs VHL); FIG. 3B: Change from baseline in 16-hour mean blood glucose level after 27 days of acylated HBD1 (3-11) fragment treatment. (n=5-8 in each group; **p value <0.01 at the 3 mg/kg dose vs VHL).
To further assess the effects of HBD1 peptides on glucose and insulin metabolisms, basal blood glucose and glucose response to an intraperitoneal glucose tolerance test (IPGTT) were assessed in glucose-telemetered obese ob/ob mice after twice daily administration of HBD peptides for 28 consecutive days. Implantation of glucose telemetry device (HD-XG, Data Science International) was carried out according to known protocols.
A dose of HBD peptide fragment of SEQ ID NO: 73 (C18:0-HLGLEEPKK) was administered twice daily at 8-hour±1 hour interval between the two daily administrations. 24 V-Lepob/J (Ob/Ob) male mice (The Jackson Laboratory, Farmington, Conn. USA) were administered subcutaneously with vehicle (NaCl 0.9%) (Control group) or with the peptide at 1 and 3 mg/kg (Test groups) (n=5-8 animals for each group) twice daily for 28 days. The first day of dosing was designated as Day 1. Bolus injection was carried out using a sterile syringe and the needle was introduced subcutaneously, 2 to 4 injection sites were used in rotation. The hair of the animals on the injection area was clipped prior to the first injection and then as necessary during the treatment period. The volume administered was 5 mL/kg/administration. Individual dose volumes were calculated using the latest body weight. On day 27, 16-hour mean blood glucose levels were assessed in normal fed conditions. On day 28, fasted (4 hours) mice were injected intraperitoneally with glucose at 1 g/kg. Plasma blood glucose profile (expressed as mg/dL) was recorded every minute up to 3-hour post glucose injection.
Intraperitoneal glucose tolerance test (IPGTT)—On the morning of the IGPTT day (day 28), 2-hour fasted animals were treated with vehicle or with the HBD fragment. Glucose solution was administered 2 hours±15 minutes post-dosing (vehicle or a peptide as set forth in SEQ ID NO: 73 (C18:0-HLGLEEPKK). Blood glucose was monitored from 10 minutes before (fasting condition) to 3-hour post-glucose challenge. Food was re-introduced 4 hours post-glucose challenge. The second treatment of the day (the HBD fragment or vehicle) was performed 2 hours after food re-introduction.

[2] = test system: C2C12 mouse skeletal muscle myotubes; test: 3H-2-deoxyglucose uptake by fully differentiated C2C12 myotubes; type: cell-based
Protocol: In particular: HBD1 SEQ ID NO: 73 (C18:0-HLGLEEPKK) at 0.8 μM, 1.5 μM, and 2.3 μM; or 1.5 μM SEQ ID NO: 73 (C18:0-HLGLEEPKK) for 2, 4, and 16 hours prior to testing glucose uptake.
The studies were performed using cultured, fully differentiated C2C12 mouse skeletal muscle myotubes. The cells were prepared by growing C2C12 cells to confluent density in DMEM with 25 mM glucose and 10% fetal bovine serum in 24 well plates. At this time, the medium was changed to differentiation medium (DMEM with 25 mM glucose and 2% horse serum) for 6 days with medium changed every third day. The various treatments were diluted in serum-free medium and, after washing the cells with serum-free medium, were added to the cells and incubated for 2 hours or alternative times, depending on the treatment. At the end of incubation period, the media was removed and 1.0 ml of glucose-free Krebs ringer bicarbonate buffer (pH 7.4), containing the same treatments, was added and incubation continued for 10 minutes. At the end of the 10 min incubation period, ^3H-2-deoxyglucose ([…]) (specific activity=8 Ci/mmole) was added directly to all wells, and the incubation continued for an additional […]. The wells were then rinsed three times with ice cold phosphate buffered saline, the cells were extracted with 0.5 N NaOH, and the ^3H-2-deoxyglucose content of the cell lysate quantitated by scintillation counting.

**Q.** Which “glucose intolerance (3-hour IPGTT profile)” value [1] does the source give for “C18:0-HLGLEEPKK (Stearoyl-HLGLEEPKK) [SEQ ID NO: 73]” here?
**A.** improved glucose intolerance in a dose-dependent manner

**Q.** What about the “glucose intolerance (3-hour IPGTT profile)” value ([1]; listed as acylated HBD1 (3-11) fragment) of the same substance?
**A.** improves glucose intolerance

**Q.** And the “effect on fasting glucose levels and glucose excursion following IPGTT at the high dose” value ([1]; ob/ob mice, 3 mg/kg twice daily, 4 weeks)?
**A.** marked effect

**Q.** What about the “glucose excursion following IPGTT” value ([1]; ob/ob mice, after 4 weeks (28 days), 1 and 3 mg/kg twice daily) of the same substance?
**A.** decreased

**Q.** And the fasting glucose levels ([1]; ob/ob mice, after 4 weeks (28 days), average within 10 min prior to IPGTT, 1 and 3 mg/kg twice daily)?
**A.** decreased fasting glucose levels

**Q.** And the “16-hour mean blood glucose levels” value ([1]; ob/ob mice)?
**A.** markedly decrease 16-hour average blood glucose levels

**Q.** What about the “16-hour mean blood glucose levels” value ([1]; ob/ob mice, listed as acylated HBD1 (3-11) fragment) of the same substance?
**A.** improves glucose intolerance

**Q.** And the “glucose uptake by C2C12 myotubes, dose dependence (FIG. 5A)” value ([2]; 0.8 μM, 1.5 μM and 2.3 μM, vs vehicle-treated controls)?
**A.** stimulated increased glucose uptake as compared with vehicle-treated controls in both a dose- and time-dependent manner

**Q.** What about the “glucose uptake by C2C12 myotubes, time dependence (FIG. 5B)” value ([2]; 1.5 μM for 2, 4 and 16 hours) of the same substance?
**A.** time-dependent manner

**Q.** What about the “glucose uptake by C2C12 myotubes with insulin, separate experiment (FIG. 8)” value ([2]; 1.5 μM plus insulin) of the same substance?
**A.** act additively with insulin; also recorded: in an additive manner with insulin

**Q.** And the “glucose uptake by C2C12 myotubes, separate experiment (FIG. 8)” value ([2]; 1.5 μM, alone)?
**A.** increased glucose uptake

**Q.** And the “glucose uptake by C2C12 myotubes in combination with insulin (FIG. 5C)” value ([2]; peptide plus insulin)?
**A.** additive increase in glucose uptake
